In patent publication US20050228016A1, “TETRAHYDROQUINOLINES FOR MODULATING THE EXPRESSION OF EXOGENOUS GENES VIA AN ECDYSONE RECEPTOR COMPLEX” (priority 2002, published 2005):

Columns and labels:
[1] = molecular target: T1, Gal4DBD/AaEcR (DEF) (Aedes aegypti, UniProt P49880); assay: cell-based; assay type: cell-based; conditions: 33 μM; 3T3 cells; 48 h; average of two wells
T1 construct: The wildtype D, E, and F domains from mosquito Aedes aegypti EcR; expressed in transfected cells; host or cells: 3T3 cells
Method in brief: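 Single-dose ligand testing at 33 μM, applied in serum medium after 4 h transfection. Host was 3T3 cells carrying Gal4DBD/AaEcR (DEF) plus a 5× GAL4 RE-driven firefly luciferase reporter (pFRLuc).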

[2] = molecular target: T2, Bombyx mori EcR (VP16-BmEcR, CVBE) (Bombyx mori, UniProt P49881); assay: Z3 assay (HEK-293 clone Z3 with CVBE and 6x EcRE LacZ, β-galactosidase reporter); assay type: cell-based; conditions: 48 h, average of two wells
T2 construct: expressed in transfected cells
T2 sequence (P49881 86-606): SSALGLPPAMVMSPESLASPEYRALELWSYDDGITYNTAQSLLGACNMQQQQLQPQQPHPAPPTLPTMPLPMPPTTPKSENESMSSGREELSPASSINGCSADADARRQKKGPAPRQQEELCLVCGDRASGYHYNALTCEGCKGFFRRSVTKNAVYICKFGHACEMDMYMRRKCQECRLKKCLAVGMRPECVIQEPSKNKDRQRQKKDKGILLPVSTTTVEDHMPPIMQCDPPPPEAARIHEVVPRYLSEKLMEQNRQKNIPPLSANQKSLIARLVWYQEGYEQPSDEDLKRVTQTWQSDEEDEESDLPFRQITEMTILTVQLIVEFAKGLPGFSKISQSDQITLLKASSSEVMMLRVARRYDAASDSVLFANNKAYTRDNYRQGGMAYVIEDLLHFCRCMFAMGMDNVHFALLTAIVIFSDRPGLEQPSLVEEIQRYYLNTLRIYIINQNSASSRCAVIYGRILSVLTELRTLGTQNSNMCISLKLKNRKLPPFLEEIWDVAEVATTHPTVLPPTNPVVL
Description: Dr. F. Gage provided a population of stably transformed cells containing CVBE and 6× EcRE as described in (Suhr et. al. 1998). Human 293 kidney cells, also referred to as HEK-293 cells, were sequentially infected with retroviral vectors encoding first the switch construct CVBE, and subsequently the reporter construct 6× EcRE Lac Z. The switch construct contained the coding sequence for amino acids 26-546 from Bombyx nori EcR (BE) (Iatrou) inserted in frame and downstream of the VP16 transactivation domain (VBE). A synthetic ATG start codon was placed under the control of cytomegalovirus (CVBE) immediate early promoter and flanked by long terminal repeats (LTR). The reporter-construct contained six copies of the ecdysone response element (EcRE) binding site placed upstream of LacZ and flanked on both sides with LTR sequences (6× EcRE).
Dilution cloning was used to isolate individual clones. Clones were selected using 450 μg/ml G418 and 100 ng/ml puromycin. Individual clones were evaluated based on their response in the presence and absence of test ligands.
Human 293 kidney cells stably transformed with CVBE and 6× EcRE lack were maintained in Minimum Essential Medium (Mediates, 10-010-CV) containing 10%.FBS (Life Technologies, 26140-087),[…] G418 (Mediates, 30-234-CR), and […] (Sigma, P-7255), at 37° C. in an atmosphere containing 5% CO2 and were subculture when they reached 75% confluence.
Z3 cells were seeded into 96-well tissue culture plates at a concentration of 2.5×10^3 cells per well and incubated at 37° C. in 5% CO2 for twenty-four hours. Stock solutions of ligands were prepared in DMSO. Ligand stock solutions were diluted 100.fold in media and 50 μL of this diluted ligand solution (33 μM) was added to cells.
Reporter gene expression was evaluated 48 hours after treatment of cells, β-galactosidase activity was measured using Gal Screen™ bioluminescent reporter gene assay system from Tropix (GSY1000).
Flanking both constructs are long terminal repeats, G418 and puromycin are selectable markers, CMV is the cytomegalovirus promoter, VBE is coding sequence for amino acids 26-546 from Bombyx mori EcR inserted downstream of the VP16 transactivation domain, 6× EcRE is six copies of the ecdysone response element, lacZ encodes for the reporter enzyme β-galactosidase.

T1 sequence (P28704 286-520 A311G/G315S/G445S/I449V): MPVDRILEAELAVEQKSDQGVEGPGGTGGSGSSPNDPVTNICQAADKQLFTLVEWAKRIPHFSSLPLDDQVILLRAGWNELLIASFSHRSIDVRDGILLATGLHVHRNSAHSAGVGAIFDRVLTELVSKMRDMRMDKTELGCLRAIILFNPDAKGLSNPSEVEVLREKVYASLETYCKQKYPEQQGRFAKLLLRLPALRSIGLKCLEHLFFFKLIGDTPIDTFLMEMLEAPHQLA
T1 sequence (P49880 405-776): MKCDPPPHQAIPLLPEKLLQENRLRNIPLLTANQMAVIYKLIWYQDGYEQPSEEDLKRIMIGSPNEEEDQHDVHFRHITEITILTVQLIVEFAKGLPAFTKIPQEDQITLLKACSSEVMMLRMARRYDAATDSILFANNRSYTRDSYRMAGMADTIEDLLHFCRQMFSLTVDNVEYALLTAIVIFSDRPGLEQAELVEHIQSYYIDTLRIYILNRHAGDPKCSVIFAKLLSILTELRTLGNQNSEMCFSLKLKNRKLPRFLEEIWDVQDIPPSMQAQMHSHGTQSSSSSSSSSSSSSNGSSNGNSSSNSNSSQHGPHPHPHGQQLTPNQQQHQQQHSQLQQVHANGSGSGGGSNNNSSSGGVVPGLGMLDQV

| Compound | Fold Induction Average, AA_3T3V1 Assay 33 μM [1] [fold] | Fold Induction Average, Z3V1 Assay 33 μM [2] [fold] |
| --- | --- | --- |
| COc1cccc(C(=O)N2c3ccc(C)cc3C(Nc3ccc(C)cc3)CC2C)c1C (stereo not shown) [Compound I-54] | 35 | 7 |
| CC1CC(Nc2ccc(F)cc2)c2cc(F)ccc2N1C(=O)c1ccccc1F (stereo not shown) [Compound I-55] | 78 | 10 |
| Cc1ccccc1C(=O)N1c2ccc(F)cc2C(Nc2ccc(F)cc2)CC1C (stereo not shown) [Compound I-56] | 158 | 8 |
| COc1ccccc1C(=O)N1c2ccc(F)cc2C(Nc2ccc(F)cc2)CC1C (stereo not shown) [Compound I-57] | 4 | 1 |
| CC1CC(Nc2ccccc2)c2ccccc2N1C(=O)c1ccc(Cl)cc1 (stereo not shown) [Compound I-61] | 216 | 4 |
| CCc1ccc(C(=O)N2c3ccccc3C(Nc3ccccc3)CC2C)cc1 (stereo not shown) [Compound I-62] | 744 | 43 |
| Cc1ccc(NC2CC(C)N(C(=O)c3ccc(Cl)cc3)c3ccc(C)cc32)cc1 (stereo not shown) [Compound I-63] | 812 | 1 |
| COc1ccc(C(=O)N2c3ccccc3C(Nc3ccccc3)CC2C)cc1 (stereo not shown) [Compound I-95] | 11 | 1 |
| Cc1ccc(C(=O)N2c3ccccc3C(Nc3ccccc3)CC2C)cc1 (stereo not shown) [Compound I-96] | 121 | 1 |
| CC1CC(Nc2ccccc2)c2ccccc2N1C(=O)c1ccccc1 (stereo not shown) [Compound I-97] | 37 | 1 |
| COc1ccc(C(=O)N2c3ccc(F)cc3C(Nc3ccc(F)cc3)CC2C)cc1 (stereo not shown) [Compound I-101] | 561 | 2 |
| Cc1ccc(C(=O)N2c3ccc(F)cc3C(Nc3ccc(F)cc3)CC2C)cc1 (stereo not shown) [Compound I-102] | 601 | 3 |
| CC1CC(Nc2ccccc2)c2ccccc2N1C(=O)c1ccc(Cl)nc1 (stereo not shown) [Compound I-103] | 341 | 4 |
| CC1CC(Nc2ccccc2)c2ccccc2N1C(=O)c1ccc(Cl)c(F)c1 (stereo not shown) [Compound I-105] | 369 | 30 |
| CC1CC(Nc2ccccc2)c2ccccc2N1C(=O)c1ccnc(Cl)c1 (stereo not shown) [Compound I-106] | 1053 | 83 |
| CCc1c(OC)cccc1C(=O)N1c2ccccc2C(Nc2ccccc2)CC1C (stereo not shown) [Compound I-107] | 636 | 6 |

| Compound | Fold Induction Average, AA_3T3V1 Assay 33 μM [1] [fold] | Fold Induction Average, Z3V1 Assay 33 μM [2] [fold] |
| --- | --- | --- |
| Cc1ccc(NC2CC(C)N(C(=O)c3ccno3)c3ccc(C)cc32)cc1 (stereo not shown) [Compound I-109] | 33 | 1 |
| Cc1ccc(NC2CC(C)N(C(=O)c3ccc(Cl)c(F)c3)c3ccc(C)cc32)cc1 (stereo not shown) [Compound I-110] | 782 | 2 |
| Cc1ccc(NC2CC(C)N(C(=O)c3ccnc(Cl)c3)c3ccc(C)cc32)cc1 (stereo not shown) [Compound I-111] | 527 | 16 |
| CCCC(=O)N1c2ccccc2C(N(C(=O)c2ccccc2)c2ccc(F)cc2)CC1C (stereo not shown) [Compound I-126] | 1 | 1 |
| COc1cccc(NC2CC(C)N(C(=O)c3ccccc3)c3ccccc32)c1 (stereo not shown) [Compound I-137] | 64 | 1 |
| COc1cccc(C(=O)N(c2ccccc2)C2CC(C)N(C(C)=O)c3ccccc32)c1 (stereo not shown) [Compound I-142] | 1 | 1 |
| Cc1ccc(C(=O)N2c3ccccc3C(N(C(=O)c3ccc(F)cc3)c3ccccc3)CC2C)cc1 (stereo not shown) [Compound I-143] | 27 | 1 |
| CC1CC(Nc2ccccc2)c2ccccc2N1C(=O)COc1ccc(F)cc1 (stereo not shown) [Compound I-159] | 12 | 1 |
| CC1CC(Nc2ccccc2)c2ccccc2N1C(=O)c1ccc(Cl)c(Cl)c1 (stereo not shown) [Compound I-165] | 1 | 1 |
| CC1CC(Nc2ccccc2)c2ccccc2N1C(=O)c1ccc(I)cc1 (stereo not shown) [Compound I-168] | 401 | 3 |
| CC1CC(Nc2ccccc2)c2ccccc2N1C(=O)CCC1CCCCC1 (stereo not shown) [Compound I-170] | 2 | 1 |
| CCOC(=O)C(=O)N1c2ccccc2C(Nc2ccccc2)CC1C (stereo not shown) [Compound I-171] | 1 | 1 |
| CC1CC(Nc2ccccc2)c2ccccc2N1C(=O)c1ccc(NS(C)(=O)=O)cc1 (stereo not shown) [Compound I-175] | 1 | 5 |
| CC(C)C(=O)N1c2ccccc2C(N(C(=O)c2ccccc2)c2ccc([N+](=O)[O-])cc2)CC1C (stereo not shown) [Compound I-178] | 1 | 1 |
| CCC(=O)N1c2ccccc2C(N(C(=O)c2ccc([N+](=O)[O-])cc2)c2ccccc2)CC1C (stereo not shown) [Compound I-183] | 1 | 2 |
| Cc1ccc(C(=O)N2c3ccc(F)cc3C(N(C(=O)c3ccc(C)c(F)c3)c3ccc(F)cc3)CC2C)cc1F (stereo not shown) [Compound I-197] | 686 | 1 |
